Experiment [1] relates to AsPC-1 human pancreatic cancer cells. The experiment can be described thus: Cell morphology during inhibition of proliferation. The format is cell-based. The following applies: membrane blebbing, cellular rounding, detachment, data not shown. The text has this: (§1) The results are presented in FIG. 2A (cetyl myristoleic acid) and FIG. 2B (palmitoleic acid).
The test system is the same in experiment [2]. The experiment is described as follows: Thymidine incorporation proliferation assay in AsPC-1 cells. It counts as cell-based.
Source text: This can be seen in FIG. 1A (results using myristoleic acid obtained from Sigma Chemicals (St. Louis, Mo.)) and FIG. 1B (results using myristoleic acid obtained from Matreya, Inc. (State College, Pa.)).
as §1
(§2) The thymidine incorporation experiments described in Example 1 were repeated in triplicate on each of two malignant human pancreatic cancer cell lines, AsPC-1 and PANC-1. The results are set forth in FIG. 3A (AsPC-1) and FIG. 3B (PANC-1).

Experiment [3] has as its system PANC-1 human pancreatic cancer cells. The experiment can be described thus: Thymidine incorporation proliferation assay in PANC-1 cells. The format is cell-based.
Source text: as §2

For another experiment, the system named is HPAC xenografts. The experiment can be described thus: Growth of HPAC xenografts in athymic mice. It counts as in vivo. To be noted: 250 mg/kg/day intraperitoneal. The method, then: (§3) The effects of daily intraperitoneal injection of myristoleic acid (250 mg/kg/day) on the growth of AsPC-1 and HPAC xenografts in athymic mice were investigated. Animals were injected daily with myristoleic acid (250 mg/kg/day) (labeled “myristoleic acid” in FIG. 6) or with a control solution (labeled “control” in FIG. 6) once visible tumors were established (about five days after implantation). […] The experiment was repeated twice with AsPC-1 cells and also with HPAC cells. The results set forth in FIG. 6 are representative of these experiments.
(§4) Tumor volumes of the above-described athymic mice were measured as a function of time, and the results are presented in FIG. 7A (AsPC-1 cancer cells) and FIG. 7B (HPAC cancer cells).
(§5) At the end of the experiment, the AsPC-1 and HPAC xenografts were harvested from the athymic mice and the weights of the tumors were measured.

Experiment [4] has as its system AsPC-1 xenografts. The experiment can be described thus: In situ TUNEL assay of harvested xenografts. It counts as in vivo, athymic mice. To be noted: AsPC-1 xenografts harvested at end of experiment; versus vehicle (minimal staining). As to the method: To determine whether the effects observed in the athymic mouse experiments described in Example 7 might be due to apoptosis, in situ TUNEL assays were carried out on the AsPC-1 xenografts that were harvested from the athymic mice at the end of the experiment. Images of xenograft sections from mice treated with the control solution (vehicle only) (FIGS. 9A and 9B) show minimal staining.

For experiment [5], the system named is AsPC-1 cells. The experiment can be described thus: TUNEL assay (DNA fragmentation). It counts as cell-based, human. The following applies: 10 μg/ml; 24 hours; versus control. The method, then: The effect of myristoleic acid (10 μg/ml) (“MA”) on terminal deoxynucleotidyl transferase-mediated dUTP nick end labeling (“TUNEL”) assay at 24 hours in AsPC-1 cells was investigated. The results are presented in FIGS. 5A (control) and 5B (10 μg/ml myristoleic acid). […] The results set forth in FIGS. 5A and 5B are representative of three separate experiments.

The test system of experiment [6] is AsPC-1 cells. The experiment can be described thus: Annexin V binding (early apoptosis). The following applies: 10 μg/ml; 3 or 5 hours after beginning treatment. It counts as cell-based, human. The method, then:
The effect of myristoleic acid (10 μg/ml) (“MA”) on annexin V binding in AsPC-1 cells at 3 or 5 hours after beginning treatment is shown in FIG. 4. […] This specific test utilizes the translocation of phophatidyl serine from the inner to outer plasma membrane, which is a feature of early apoptosis. The results set forth in FIG. 4 are representative of three separate experiments.

Experiment [7] deals with AsPC-1 xenografts. The experiment can be described thus: Growth of AsPC-1 xenografts in athymic mice. It counts as in vivo. To be noted: 250 mg/kg/day intraperitoneal. The method, then:
as §3, §4, §5

With `CCCC/C=C\CCCCCCCC(=O)OCCCCCCCCCCCCCCCC` [cetyl myristoleic acid], the “morphological changes accompanying inhibition of proliferation” value in experiment [1] is reported as “morphological changes associated with apoptosis”. In addition, the “inhibition of proliferation as measured by thymidine incorporation” value (“inhibition of proliferation as measured” below) in experiment [2] (Example 2) is “concentration-dependent inhibition of proliferation”.

Take `CCCC/C=C\CCCCCCCC(=O)O` [myristoleic acid]: the “anti-proliferative activity, concentration range of effects” value in experiment [3] and in experiment [2] was “low micromolar range” each time. Further, the “effects on pancreatic cancer cell proliferation (thymidine incorporation)” value in experiment [3] (repeated in triplicate) and in experiment [2] (repeated in triplicate) was “concentration-dependent effects” throughout. Moreover, the “morphological changes accompanying inhibition of proliferation” value in experiment [1] is “morphological changes associated with apoptosis”. The “inhibition of proliferation as measured” value in experiment [2] (24 hours, myristoleic acid from two commercial sources (Sigma, Matreya)) is given as “concentration-dependent inhibition of proliferation”. The tumor size result is “marked reduction in tumor size” in the experiment with HPAC xenografts (daily, HPAC xenografts, throughout the experimental period) and “marked reduction in tumor size” in the experiment with AsPC-1 xenografts [7] (daily, AsPC-1 xenografts, throughout the experimental period). Further, the tumor weight entry is recorded as “marked reduction” in the experiment on HPAC xenografts (HPAC, at the end of the experiment) and “marked reduction” with AsPC-1 xenografts [7] (AsPC-1, at the end of the experiment). For the same compound, the tumor volume result in the experiment on HPAC xenografts (HPAC, throughout the experimental period) is “marked reduction”; in the experiment on AsPC-1 xenografts [7] (AsPC-1, throughout the experimental period) it was “marked reduction”. Also, the “apoptotic cells in xenograft sections (in situ TUNEL)” value in the experiment with AsPC-1 xenografts [4] was “many apoptotic cells”. The “number of apoptotic cells by TUNEL assay” value in the experiment on AsPC-1 cells [5] was “marked increase in the number of apoptotic cells”. In the experiment with AsPC-1 cells [6], the “annexin V binding” value is recorded as “Marked membrane fluorescence”.

With `CCCCCC/C=C\CCCCCCCC(=O)O` [palmitoleic acid], in experiment [1], the “morphological changes accompanying inhibition of proliferation” value is recorded as “morphological changes associated with apoptosis”. Further, in experiment [2] (Example 2), the “inhibition of proliferation as measured” value is given as “concentration-dependent inhibition of proliferation”.

The record behind these values is US20040072902A1, “Methods for inducing apoptosis and inhibiting proliferation in cancer cells” (priority 2003, published 2004).
